Earlier results in patent publication US10195165B2, “Methods of treating Prader-Willi syndrome” (Ovid Therapeutics Inc., priority 2015, dated 2019).

Tests used:
[1] = molecular target: T1, serotonin 5HT2c receptor (Homo sapiens, UniProt P28335); conditions: 1 μM captodiamine competing with a reference ligand
T1 construct: Novascreen
T1 sequence (P28335 33-458): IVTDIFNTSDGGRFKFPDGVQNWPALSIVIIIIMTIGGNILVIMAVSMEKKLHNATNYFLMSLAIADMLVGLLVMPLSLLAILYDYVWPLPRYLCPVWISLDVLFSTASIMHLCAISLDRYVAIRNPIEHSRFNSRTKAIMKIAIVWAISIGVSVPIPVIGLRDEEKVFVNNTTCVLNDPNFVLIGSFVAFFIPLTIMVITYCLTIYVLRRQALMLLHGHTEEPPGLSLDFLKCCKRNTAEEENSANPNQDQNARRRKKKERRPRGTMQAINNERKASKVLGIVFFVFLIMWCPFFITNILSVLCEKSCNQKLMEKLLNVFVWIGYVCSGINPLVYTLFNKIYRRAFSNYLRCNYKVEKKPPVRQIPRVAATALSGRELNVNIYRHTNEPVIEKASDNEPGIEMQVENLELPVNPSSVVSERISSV

[2] = molecular target: T2, Sigma 2 receptor (Homo sapiens, UniProt Q5BJF2); conditions: 1 μM captodiamine competing with a reference ligand
T2 construct: Novascreen
T2 sequence (Q5BJF2 whole entry, species assumed): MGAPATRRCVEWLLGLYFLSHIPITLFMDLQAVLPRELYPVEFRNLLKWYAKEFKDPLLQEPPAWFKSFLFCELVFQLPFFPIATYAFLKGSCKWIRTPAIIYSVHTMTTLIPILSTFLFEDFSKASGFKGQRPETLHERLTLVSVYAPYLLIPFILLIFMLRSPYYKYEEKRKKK

[3] = system: C57B16 mice; conditions: 3 and 5 mg/kg intraperitoneal once daily for 7 days
[4] = system: C57B16 mice; conditions: 3 and 5 mg/kg intraperitoneal once daily for 7 days; remark: listed apart in the source
[5] = system: C57B16 mice; conditions: 3 and 5 mg/kg intraperitoneal once daily for 7 days; remark: listed apart in the source
[6] = system: C57B16 mice; conditions: 3 mg/kg dose, intraperitoneal; one-tailed t-test
[7] = system: C57B16 mice; conditions: 3 and 5 mg/kg intraperitoneal once daily for 7 days; remark: listed apart in the source
[8] = system: C57B16 mice; conditions: 3 and 5 mg/kg intraperitoneal once daily for 7 days; remark: listed apart in the source
[9] = system: Brain Derived Neurotrophic Factor (BDNF)
[10] = system: Glial Derived Neurotrophic Factor (GDNF)
[11] = system: subjects with mild to moderate anxiety weaned from benzodiazepine
[12] = system: car driving ability of individuals; conditions: compared to lorazepam
[13] = molecular target: T3, Sigma 1 receptor (Homo sapiens, UniProt Q99720)
T3 sequence (Q99720 whole entry, species assumed): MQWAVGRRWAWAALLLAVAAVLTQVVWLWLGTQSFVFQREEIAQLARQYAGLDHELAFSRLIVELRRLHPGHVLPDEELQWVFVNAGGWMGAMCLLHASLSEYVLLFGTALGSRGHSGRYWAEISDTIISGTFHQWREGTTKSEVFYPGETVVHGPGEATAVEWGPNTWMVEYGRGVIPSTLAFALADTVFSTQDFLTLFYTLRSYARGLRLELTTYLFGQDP

[14] = molecular target: T4, 5-HT2C (Homo sapiens, UniProt P28335)
T4 sequence (P28335 33-458): T1 sequence (P28335 33-458)

[15] = molecular target: T5, dopamine D3 (Homo sapiens, UniProt P35462)
Target sequence in this assay (P35462 whole entry): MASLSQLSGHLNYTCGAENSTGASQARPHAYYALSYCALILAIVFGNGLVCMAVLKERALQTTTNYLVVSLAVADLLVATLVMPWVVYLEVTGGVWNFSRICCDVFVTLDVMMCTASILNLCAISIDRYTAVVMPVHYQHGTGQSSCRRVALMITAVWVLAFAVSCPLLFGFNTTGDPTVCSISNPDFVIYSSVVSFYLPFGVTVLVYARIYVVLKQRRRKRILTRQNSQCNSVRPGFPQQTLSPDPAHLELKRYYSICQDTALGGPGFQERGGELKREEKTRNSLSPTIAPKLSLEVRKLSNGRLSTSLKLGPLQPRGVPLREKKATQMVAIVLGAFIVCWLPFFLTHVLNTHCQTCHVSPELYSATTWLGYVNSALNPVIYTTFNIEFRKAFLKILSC

[16] = system: brain-derived neurotrophic factor (BDNF)
[17] = molecular target: T3, Sigma 1 receptor; parameters: Novascreen; conditions: 1 μM captodiamine competing with a reference ligand
[18] = molecular target: T5, dopamine D3; parameters: Novascreen; conditions: 1 μM captodiamine competing with a reference ligand
Target sequence in this assay (P35462 whole entry, species assumed): as the sequence (P35462 whole entry) above

CCCCSc1ccc(C(SCCN(C)C)c2ccccc2)cc1 (stereo not drawn) [captodiamine, 2-[(4-butylsulfanylphenyl)-phenylmethyl]sulfanyl-N,N-dimethylethanamine]
percent target inhibition, serotonin 5HT2c receptor [1]: greater than 80% | percent target inhibition, Sigma 2 receptor [2]: greater than 20% | basal locomotion in the open-field paradigm [3]: no influence on basal locomotion | time in the center of the arena (open-field) [3]: significantly more time in the center | exploring the open arms of the elevated X-maze [4]: significantly longer periods exploring the open arms | pre-pulse inhibition paradigm [5]: no effect on the pre-pulse inhibition paradigm | time investigating objects during the training phase, Novel Object Recognition Task [6]: significantly longer investigating objects during the training phase | water maze spatial learning task [7]: significant pro-cognitive action | time to immobility in the forced swim test [8]: significant increase on time to immobility | BDNF expression levels and/or activity, hippocampus ([9]; hippocampus): no effect | levels of expression of BDNF, hypothalamus ([9]; hypothalamus): significantly increased | BDNF expression levels and/or activity, prefrontal cortex ([9]; prefrontal cortex): no effect | levels of expression of GDNF, hypothalamus ([10]; hypothalamus): not in either the hippocampus or the hypothalamus | levels of expression of GDNF, prefrontal cortex ([10]; prefrontal cortex): significantly decreased | Tyrer Benzodiazepine Withdrawal Symptom Questionnaire (BWSQ) score ([11]; 150 mg/d for 45 days versus placebo, primary outcome): statistically significant difference (p<0.0001; ANCOVA with repeated measures) between the two study groups in favor of captodiamine | drowsiness score ([11]; 150 mg/d versus placebo): declined from D0 | self-reported anxiety scores ([11]; 150 mg/d versus placebo, weaning and assessment phases): anxiety scores evolved little during the weaning phase and then fell during the assessment phase | re-emergence of anxiety or withdrawal symptoms after stopping captodiamine ([11]; after treatment stopped at 45 days): no re-emergence of anxiety or evidence for withdrawal symptoms | severity of benzodiazepine withdrawal symptoms ([11]; compared to placebo, background summary): lower severity of benzodiazepine withdrawal symptoms | concentration and dexterity when driving [12]: improved the concentration and dexterity | tendency to drowsiness when driving [12]: without inducing a tendency to drowsiness | activity at sigma-1 receptor [13]: sigma-1 receptor agonist | activity at 5-HT2C [14]: 5-HT2C antagonist | activity at dopamine D3 [15]: dopamine D3 agonist | BDNF protein levels, hypothalamus [16]: increase brain-derived neurotrophic factor (BDNF) protein levels in the hypothalamus | percent target inhibition, Sigma 1 receptor [17]: greater than 90% | percent target inhibition, dopamine D3 receptor [18]: greater than 80%
